Like-named read-outs stand apart in the source and are kept apart here.
What was measured:
human CB2 receptors = biological target: T1, human CB2 receptors (Homo sapiens, UniProt P34972); experiment: CB2 radioligand binding assay ([3H]CP 55,940 competition), human
T1 construct: expressed in transfected cells; membrane preparation

rat CB2 receptors = biological target: T2, rat CB2 receptors (Rattus norvegicus, UniProt Q9QZN9); experiment: CB2 radioligand binding assay ([3H]CP 55,940 competition), rat
T2 construct: expressed in transfected cells; membrane preparation
T2 sequence (Q9QZN9 1-360): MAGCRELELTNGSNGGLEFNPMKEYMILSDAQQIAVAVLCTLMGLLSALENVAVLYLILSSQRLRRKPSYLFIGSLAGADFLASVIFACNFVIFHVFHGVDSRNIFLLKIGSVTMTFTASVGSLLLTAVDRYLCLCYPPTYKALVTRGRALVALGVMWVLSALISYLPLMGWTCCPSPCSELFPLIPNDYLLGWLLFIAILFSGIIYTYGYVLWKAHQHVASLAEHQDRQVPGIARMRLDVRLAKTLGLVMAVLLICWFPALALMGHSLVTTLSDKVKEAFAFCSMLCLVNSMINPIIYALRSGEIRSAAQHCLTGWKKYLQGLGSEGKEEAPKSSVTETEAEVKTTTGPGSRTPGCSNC

T1 sequence (P34972 whole entry): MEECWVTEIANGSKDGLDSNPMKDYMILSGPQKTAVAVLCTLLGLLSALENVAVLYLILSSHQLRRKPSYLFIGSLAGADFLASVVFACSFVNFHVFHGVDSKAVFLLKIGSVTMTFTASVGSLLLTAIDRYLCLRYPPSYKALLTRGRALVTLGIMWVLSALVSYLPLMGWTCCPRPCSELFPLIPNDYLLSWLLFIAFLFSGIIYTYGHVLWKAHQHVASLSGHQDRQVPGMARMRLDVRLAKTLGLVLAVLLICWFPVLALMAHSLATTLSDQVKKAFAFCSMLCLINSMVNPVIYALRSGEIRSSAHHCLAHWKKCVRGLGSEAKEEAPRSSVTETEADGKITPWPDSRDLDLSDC

SMILES | Ki (human CB2 receptors; membranes of HEK293 cells stably expressing human CB2, 0.5 nM [3H]CP 55,940, read-out: human CB2 binding (Ki)) | Ki (rat CB2 receptors; membranes of HEK293 cells stably expressing rat CB2, 0.5 nM [3H]CP 55,940, read-out: rat CB2 binding (Ki)) | Ki (human CB2 receptors) | Ki (rat CB2 receptors)
CCCCn1/c(=N/C(=O)c2cc(C(F)(F)F)ccc2OC[C@H](C)O)sc2ncnc(O)c21 [Example 1, N-[(2Z)-1-butyl-7-hydroxy[1,3]thiazolo[5,4-d]pyrimidin-2(1H)-ylidene]-2-{[(2S)-2-hydroxypropyl]oxy}-5-(trifluoromethyl)benzamide] | 233 nM | 157 nM |  | 
CCCCn1/c(=N/C(=O)c2cc(C(F)(F)F)ccc2OC[C@H](C)O)sc2nccnc21 [Example 2, N-[(2Z)-3-butyl[1,3]thiazolo[4,5-b]pyrazin-2(3H)-ylidene]-2-{[(2S)-2-hydroxypropyl]oxy}-5-(trifluoromethyl)benzamide] |  |  | 2 nM | 4.1 nM
CCCCn1/c(=N/C(=O)c2cc(C(F)(F)F)ccc2OC[C@H](C)O)sc2ncncc21 [Example 3, N-[(2Z)-1-butyl[1,3]thiazolo[5,4-d]pyrimidin-2(1H)-ylidene]-2-{[(2S)-2-hydroxypropyl]oxy}-5-(trifluoromethyl)benzamide] |  |  | 10 nM | 4 nM
CCCCn1/c(=N/C(=O)c2cc(C(F)(F)F)ccc2OC[C@H](C)O)sc2cnn(C)c(=O)c21 [Example 4, N-[(2Z)-3-butyl-5-methyl-4-oxo-4,5-dihydro[1,3]thiazolo[4,5-d]pyridazin-2(3H)-ylidene]-2-{[(2S)-2-hydroxypropyl]oxy}-5-(trifluoromethyl)benzamide] |  |  | 36 nM | 5 nM

Source: patent publication US8586596B2, “Compounds as cannabinoid receptor ligands” (AbbVie Inc., priority 2010, dated 2013)
